The source of these data is patent US10174013B2, “Benzimidazole derivatives as kinase inhibitors” (SELVITA S.A., priority 2012, dated 2019).

Counter-ions that a name gives are not always drawn. Like-named read-outs stand apart in the source and are kept apart here.

One assay addresses Pim-1 (Homo sapiens (Human), UniProt P11309). The assay can be described thus: ADP-Glo Kinase Assay, Pim-1. Format: biochemical. As to conditions: 1 μM compound; read-out: Pim-1 % INH (1 μM). The method in brief: (§1)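 ADP-Glo luminescent ADP detection of human kinase activity in 5 mM MOPS pH 7.5, 5 mM MgCl2, 0.4 mM EDTA, 1.5 mM DTT. ATP at each kinase's apparent Km; compounds diluted to 1000 nM in assay buffer. Percent inhibition from normalised luminescence.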
A general note: ADP-Glo first removes unused ATP, then detects ADP through luciferase.

In another assay the test system is MV4-11 cells. The assay can be described thus: Growth inhibition, MTS assay, MV4-11. In kind it is cell-based, Human. The settings on record: MTS cell viability, read-out: MV4-11 ED50. A general note: Tetrazolium dyes change colour on reduction, which living cells bring about.
The next assay has as its target DYRK1 (Homo sapiens (Human), UniProt Q13627). Briefly: ADP-Glo Kinase Assay, DYRK1. Format: biochemical. As to conditions: 1 μM compound; for inhibition at 1 µM: read-out: DYRK1A % INH (1 μM). The essentials:
as §1

The next assay addresses Pim-2 (Homo sapiens (Human), UniProt Q9P1W9). The assay can be described thus: ADP-Glo Kinase Assay, Pim-2. Format: biochemical. As to conditions: 1 μM compound; for inhibition at 1 µM: read-out: Pim-2 % INH (1 μM). The method in brief: as §1
The target in a further assay is FLT3wt (Homo sapiens (Human), UniProt P36888). The assay can be described thus: ADP-Glo Kinase Assay, Flt3 wt. In kind it is biochemical. As to conditions: 1 μM compound; for inhibition at 1 µM: read-out: Flt3wt % INH (1 μM). The method in brief:
as §1

For the next assay, the target named is CDK2/E (Homo sapiens (Human), UniProt P24941). The assay can be described thus: ADP-Glo Kinase Assay, CDK2/E. In kind it is biochemical. As to conditions: 1 μM compound; for inhibition at 1 µM: read-out: CDK2/E % INH (1 μM). The essentials:
as §1

A further assay addresses CYP3A4 (Homo sapiens (Human), UniProt P08684). The assay can be described thus: Cytochrome P450 inhibition, fluorescence, CYP3A4. In kind it is in vitro ADME. As to conditions: recombinant CYP3A4, fluorescence detection; read-out: CYP inhibition (CYP 3A4 screening, IC50 class). How it is done:
The assays for cytochrome P450 inhibition facilitate the identification of drug candidates with lower potential for drug-drug interactions (weak enzymes inhibitors). In vitro experiments were conducted to determine whether a drug inhibits a specific CYP enzyme. The experiments comprised the incubation of the drug with probe substrates for the CYP enzymes, wherein the following recombinant cytochrome P450 isoforms were employed: CYP1A2, CYP2C8, CYP2C9, CYP2C19, CYP2D6 and CYP3A4, together with various probe substrates enabling fluorescence detection. The protocol uses a single substrate concentration near the apparent Km and multiple compound concentrations.
The assay was performed in 96-well microtiter plates. The row designations were A through H and the column designations were 1 through 12. […] Each compound (see Table 6 for tested compounds) was added to the wells in column 1 and serially diluted to the wells in column 8. Wells 9 and 10 were control wells which contained no test compound (therefore no inhibition-full signal is detected.) The wells in columns 11 and 12 were blanks, where STOP solution was added prior to the addition of the enzyme/substrate mix to the NADPH regenerating system (the only signal present in these wells is background noise.) The assay was conducted in a final volume of 0.2 ml per well.
The stock solutions of the tested compounds were prepared in DMSO at 10 mM concentration. […] After mixing the compounds with solution containing NADPH-cofactors, the mixed plate was preincubated in a 37° C. incubator for at least 10 minutes; next, the fluorescence of compounds using recommended excitation/emission filters was measured in order to eliminate false results originating from autofluorescence of the compounds. In the following step, the enzyme/substrate mix was added to columns 1 through 10 and the plates were incubated at 37° C. for specific times depending on the CYP tested (incubation times ranged from 30 to 45 minutes). After adding STOP SOLUTION to all wells and respective enzyme/substrate mix to the wells in columns 11 and 12, the plate was scanned with a fluorescent plate scanner. The excitation/emission filters used for the specific assays are described in the GenTest Screening Kit instruction manual.

The target of the next assay is Pim-3 (Homo sapiens (Human), UniProt Q86V86). The assay can be described thus: ADP-Glo Kinase Assay, Pim-3. In kind it is biochemical. The settings on record: 1 μM compound; for inhibition at 1 µM: read-out: Pim-3 % INH (1 μM). The essentials: as §1
A further assay relates to SW-480 cells. The assay can be described thus: Growth inhibition, MTS assay, SW-480. The settings on record: Homo sapiens, SW480; 72 hours, MTS cell viability; read-out: SW-480 ED50. Format: cell-based, Human.
The test system of the next assay is Jeko-1 cells. The assay can be described thus: Growth inhibition, MTS assay, Jeko-1. In kind it is cell-based, Human. As to conditions: Homo sapiens, JeKo-1; 72 hours, MTS cell viability; read-out: Jeko-1 ED50.
The next assay has as its system HEL92 cells. Briefly: Growth inhibition, MTS assay, HEL92. The settings on record: Homo sapiens, 72 h, MTS cell viability, read-out: HEL92 ED50. In kind it is cell-based, Human.
In the next assay the test system is HepG2 cells. Briefly: Growth inhibition, MTS assay, HepG2. In kind it is cell-based, Human. As to conditions: Homo sapiens, HepG2, 72 h, MTS cell viability, read-out: HepG2 ED50.
A further assay has as its target hERG potassium channel (Homo sapiens (Human), UniProt Q12809). The assay can be described thus: hERG automated patch clamp assay (QPatch HT). How it is done:
The hERG (human ether-A-go-go-related gene) channel corresponds to an important anti-target for potential new drugs since its inhibition may lead to sudden death. In order to establish whether the compounds of the present invention act on hERG, the following experiment was carried out.
The in vitro effects of the compounds indicated in Table 5 on the hERG potassium channel current (a surrogate for Iκr, the rapidly activating, delayed rectifier cardiac potassium current) expressed in mammalian cells were evaluated at room temperature using the QPatch HT® (Sophion Bioscience A/S, Denmark), an automatic parallel patch clamp system. Each compound indicated in Table 5 was evaluated at 0.1, 1, 3, 10 and 30 μM with each concentration tested in a minimum of two cells (n≥2). The duration of exposure to each compound concentration was 3 minutes.
(In general: Block of hERG is tested as a sign of cardiac risk.)

Chain of Pim-1 (P11309 whole entry): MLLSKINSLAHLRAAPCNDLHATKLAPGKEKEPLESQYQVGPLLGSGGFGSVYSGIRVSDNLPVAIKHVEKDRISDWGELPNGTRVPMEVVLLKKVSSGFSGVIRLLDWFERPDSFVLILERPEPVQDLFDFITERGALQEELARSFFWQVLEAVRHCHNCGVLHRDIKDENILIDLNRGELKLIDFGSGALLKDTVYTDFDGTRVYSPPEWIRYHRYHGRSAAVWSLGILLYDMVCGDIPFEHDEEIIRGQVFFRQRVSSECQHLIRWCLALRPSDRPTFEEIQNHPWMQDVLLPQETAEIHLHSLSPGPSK
Chain of FLT3wt (P36888 27-993): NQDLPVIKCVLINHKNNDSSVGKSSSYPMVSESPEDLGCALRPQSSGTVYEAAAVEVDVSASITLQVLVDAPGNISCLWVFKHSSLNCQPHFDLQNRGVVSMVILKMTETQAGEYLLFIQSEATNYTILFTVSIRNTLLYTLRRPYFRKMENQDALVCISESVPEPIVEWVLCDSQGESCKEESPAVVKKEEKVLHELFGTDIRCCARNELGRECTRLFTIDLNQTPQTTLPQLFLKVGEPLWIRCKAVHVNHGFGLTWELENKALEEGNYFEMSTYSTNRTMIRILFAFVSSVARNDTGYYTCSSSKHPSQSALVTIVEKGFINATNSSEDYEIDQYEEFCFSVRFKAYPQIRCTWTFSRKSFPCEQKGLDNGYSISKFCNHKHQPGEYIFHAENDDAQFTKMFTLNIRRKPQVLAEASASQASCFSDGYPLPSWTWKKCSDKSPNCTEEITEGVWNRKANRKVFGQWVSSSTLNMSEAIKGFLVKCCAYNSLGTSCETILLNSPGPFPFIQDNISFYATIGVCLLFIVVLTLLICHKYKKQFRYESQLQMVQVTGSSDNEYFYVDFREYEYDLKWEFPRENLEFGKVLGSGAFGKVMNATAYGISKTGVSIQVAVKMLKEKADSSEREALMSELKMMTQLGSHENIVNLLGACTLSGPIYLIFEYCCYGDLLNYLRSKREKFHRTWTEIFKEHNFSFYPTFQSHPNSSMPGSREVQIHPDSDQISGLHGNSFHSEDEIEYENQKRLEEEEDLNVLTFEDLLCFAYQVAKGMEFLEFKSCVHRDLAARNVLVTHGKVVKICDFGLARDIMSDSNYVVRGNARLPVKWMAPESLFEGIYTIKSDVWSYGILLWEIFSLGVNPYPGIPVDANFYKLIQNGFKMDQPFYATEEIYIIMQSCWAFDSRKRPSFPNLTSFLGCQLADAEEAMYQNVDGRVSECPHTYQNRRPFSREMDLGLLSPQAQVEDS
Chain of Pim-2 (Q9P1W9 whole entry): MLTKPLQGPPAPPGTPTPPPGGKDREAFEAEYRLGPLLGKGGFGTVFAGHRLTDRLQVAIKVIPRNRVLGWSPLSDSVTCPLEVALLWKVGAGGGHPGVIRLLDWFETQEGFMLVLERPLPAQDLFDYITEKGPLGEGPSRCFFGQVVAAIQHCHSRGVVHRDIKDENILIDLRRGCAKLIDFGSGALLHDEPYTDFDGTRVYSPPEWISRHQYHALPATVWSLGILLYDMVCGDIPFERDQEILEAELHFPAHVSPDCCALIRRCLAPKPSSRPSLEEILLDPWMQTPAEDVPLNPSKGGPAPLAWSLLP
Chain of CYP3A4 (P08684 whole entry, canonical isoform): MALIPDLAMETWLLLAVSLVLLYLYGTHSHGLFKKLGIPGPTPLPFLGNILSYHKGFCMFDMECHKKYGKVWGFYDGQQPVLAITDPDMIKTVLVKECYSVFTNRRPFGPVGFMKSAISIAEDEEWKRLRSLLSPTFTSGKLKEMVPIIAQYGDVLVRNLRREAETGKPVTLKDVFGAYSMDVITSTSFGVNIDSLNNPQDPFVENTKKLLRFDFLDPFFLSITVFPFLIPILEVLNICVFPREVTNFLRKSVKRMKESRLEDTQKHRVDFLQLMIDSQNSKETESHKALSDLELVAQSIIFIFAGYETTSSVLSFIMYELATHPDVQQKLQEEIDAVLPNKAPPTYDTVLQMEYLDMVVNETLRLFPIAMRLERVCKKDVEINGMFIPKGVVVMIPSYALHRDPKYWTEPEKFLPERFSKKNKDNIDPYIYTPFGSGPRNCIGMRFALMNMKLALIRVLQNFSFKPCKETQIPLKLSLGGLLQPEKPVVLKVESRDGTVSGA
Chain of hERG potassium channel (Q12809 whole entry): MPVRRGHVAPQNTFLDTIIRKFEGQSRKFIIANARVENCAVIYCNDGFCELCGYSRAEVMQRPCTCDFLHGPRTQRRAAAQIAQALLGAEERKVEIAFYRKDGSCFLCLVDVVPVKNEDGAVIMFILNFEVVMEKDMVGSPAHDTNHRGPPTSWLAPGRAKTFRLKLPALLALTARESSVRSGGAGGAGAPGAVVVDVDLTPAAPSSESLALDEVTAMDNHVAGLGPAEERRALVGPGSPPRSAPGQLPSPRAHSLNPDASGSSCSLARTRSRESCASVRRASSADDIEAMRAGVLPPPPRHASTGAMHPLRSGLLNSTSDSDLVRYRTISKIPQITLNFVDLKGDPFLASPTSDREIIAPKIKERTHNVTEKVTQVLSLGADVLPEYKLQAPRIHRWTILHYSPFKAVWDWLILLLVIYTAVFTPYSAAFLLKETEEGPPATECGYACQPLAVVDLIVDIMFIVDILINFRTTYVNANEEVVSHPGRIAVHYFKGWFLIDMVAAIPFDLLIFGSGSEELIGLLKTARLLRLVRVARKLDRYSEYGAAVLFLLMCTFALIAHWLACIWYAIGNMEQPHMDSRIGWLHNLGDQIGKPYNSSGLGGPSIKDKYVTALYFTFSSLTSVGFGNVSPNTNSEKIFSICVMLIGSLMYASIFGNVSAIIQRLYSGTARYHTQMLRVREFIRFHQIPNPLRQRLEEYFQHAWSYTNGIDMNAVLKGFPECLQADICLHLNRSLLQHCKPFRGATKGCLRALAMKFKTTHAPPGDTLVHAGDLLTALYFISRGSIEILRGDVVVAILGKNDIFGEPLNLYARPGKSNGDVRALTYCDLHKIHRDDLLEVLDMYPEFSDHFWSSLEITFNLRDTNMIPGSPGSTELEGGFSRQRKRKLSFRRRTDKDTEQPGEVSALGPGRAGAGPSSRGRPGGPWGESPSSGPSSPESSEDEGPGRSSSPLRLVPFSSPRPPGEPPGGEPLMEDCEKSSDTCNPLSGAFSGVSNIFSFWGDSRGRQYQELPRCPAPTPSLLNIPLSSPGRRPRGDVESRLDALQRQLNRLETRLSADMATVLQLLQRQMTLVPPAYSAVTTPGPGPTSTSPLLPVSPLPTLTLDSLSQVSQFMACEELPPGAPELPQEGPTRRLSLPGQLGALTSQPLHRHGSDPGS

As to `CC(C)n1c(N2CCC[C@H](O)C2)nc2c([N+](=O)[O-])c(Br)c(Br)cc21` [Example 22I, (3S)-1-[5,6-dibromo-4-nitro-1-(propan-2-yl)-1H-1,3-benzodiazol-2-yl]piperidin-3-ol], the inhibition at 1 µM on Pim-1 was > 95%; on DYRK1 it was 20%; at Pim-2, 28%; at FLT3wt, < 5%; on CDK2/E, < 5%; on Pim-3 it was 84%. Further, the IC50 was 5.4 µM in the assay with MV4-11 cells (Homo sapiens, MV4-11, 72 h) and > 10 µM at CYP3A4.

Turning to `CCn1c(NC2CCNC2)nc2c([N+](=O)[O-])c(Br)c(Br)cc21` (stereo not shown) [Example 1AF], the IC50 in the assay with SW-480 cells was 5.2 µM; in the assay with MV4-11 cells (Homo sapiens, MV4-11, 72 h), 1.2 µM; in the assay with Jeko-1 cells, 2.3 µM; in the assay on HEL92 cells it was 8.5 µM; at CYP3A4, > 10 µM; in the assay on HepG2 cells it was 1.8 µM. In addition, the inhibition at 1 µM at Pim-1 was > 95%; at DYRK1, 47%; on Pim-2, 23%; on FLT3wt, < 5%; at CDK2/E it was < 5%; on Pim-3 it was 71%.

`CC(C)n1c(NC2CCNC2)nc2c(C#N)c(Br)c(Br)cc21` (stereo not shown) [Example 1BH]: the inhibition at 1 µM on Pim-1 is 83%; on CDK2/E, < 5%. Also, the IC50 with MV4-11 cells (72 hours) is 4.6 µM; on CYP3A4 it was > 10 µM; with HepG2 cells, 5.6 µM. Besides, the “DYRK1A % INH (1 μM)” value at DYRK1 is 22%. Further, the “Pim-2 % INH (1 μM)” value on Pim-2 is reported as 13%. In addition, the “Flt3wt % INH (1 μM)” value at FLT3wt is <5%. The “Pim-3 % INH (1 μM)” value at Pim-3 was 60%.

Turning to `NCCCNc1nc2c([N+](=O)[O-])c(Br)c(Br)cc2n1C1CCCC1` [Example 2H, N-(3-aminopropyl)-5,6-dibromo-1-cyclopentyl-4-nitro-1H-1,3-benzodiazol-2-amine hydrochloride], the IC50 was 1.4 µM in the assay on SW-480 cells; 2 µM in the assay on MV4-11 cells (Homo sapiens, MV4-11, 72 h); 6.8 µM in the assay on HEL92 cells; 3.3 to 10 µM at CYP3A4; 1.5 µM in the assay with HepG2 cells. Also, the inhibition at 1 µM is > 95% on Pim-1; 62% at DYRK1; 56% on Pim-2; < 5% at FLT3wt; < 5% on CDK2/E; > 95% at Pim-3.

Take `CC(C)n1c(NC2CCC(N)CC2)nc2c([N+](=O)[O-])c(Br)c(Br)cc21` (stereo not shown) [Example 1BC]: the inhibition at 1 µM amounted to 79% at Pim-1, 14% on DYRK1, 16% on Pim-2 and 46% at Pim-3. For the same molecule, the IC50 in the assay on MV4-11 cells (Homo sapiens, MV4-11, 72 h) is 3.2 µM; in the assay with Jeko-1 cells it was 3 µM; with HEL92 cells it was 7.9 µM; on CYP3A4, 3.3 to 10 µM. At FLT3wt, the “Flt3wt % INH (1 μM)” value is reported as <5%. In addition, the “CDK2/E % INH (1 μM)” value on CDK2/E was <5%.

For `NCCCNc1nc2c([N+](=O)[O-])c(Br)c(Br)cc2[nH]1` [Example 1D], the IC50 in the assay on SW-480 cells is 6.2 µM; in the assay with MV4-11 cells (Homo sapiens, MV4-11, 72 h) it was 5.9 µM; with HEL92 cells it was 8.2 µM; at CYP3A4, > 10 µM; in the assay on HepG2 cells, 6.2 µM. The inhibition at 1 µM is > 95% at Pim-1; 16% on DYRK1; 41% at Pim-2; < 5% at FLT3wt; 21% on CDK2/E; 57% at Pim-3.

On to `COC(CN)CNc1nc2c([N+](=O)[O-])c(Br)c(Br)cc2n1C(C)C` (stereo not shown) [Example 22AB, N-(3-amino-2-methoxypropyl)-5,6-dibromo-4-nitro-1-(propan-2-yl)-1H-1,3-benzodiazol-2-amine], for which the inhibition at 1 µM on Pim-1 was > 95%; on DYRK1, 17%; on Pim-2, 31%; at FLT3wt it was < 5%; on CDK2/E, < 5%; on Pim-3 it was 76%. The IC50 with MV4-11 cells (Homo sapiens, MV4-11, 72 h) was 3.2 µM; on hERG potassium channel, 2.02 µM; on CYP3A4 it was 3.3 to 10 µM; in the assay with HepG2 cells it was 5.1 µM.

For `CC(C)n1c(N2CCCC(O)C2)nc2c([N+](=O)[O-])c(Br)c(Br)cc21` (stereo not shown) [Example 22G, 1-[5,6-dibromo-4-nitro-1-(propan-2-yl)-1H-1,3-benzodiazol-2-yl]piperidin-3-], the inhibition at 1 µM was > 95% on Pim-1; 47% at Pim-2; 13% on FLT3wt; 5% at CDK2/E; 87% at Pim-3. The IC50 with MV4-11 cells (Homo sapiens, MV4-11, 72 h) was 4.8 µM; on CYP3A4 it was > 10 µM.

With `CCC(C)n1c(N2CCNCC2)nc2c([N+](=O)[O-])c(Br)c(Br)cc21` (stereo not shown) [Example 2I, 5,6-dibromo-1-(butan-2-yl)-4-nitro-2-(piperazin-1-yl)-1H-1,3-benzodiazole hydrochloride], the inhibition at 1 µM is > 95% on Pim-1; > 95% at DYRK1; 75% on Pim-2; 89% at FLT3wt; 60% at CDK2/E; > 95% on Pim-3. Moreover, the IC50 was 0.2 µM in the assay with MV4-11 cells (Homo sapiens, MV4-11, 72 h); 0.8 µM in the assay on HEL92 cells; 3.3 to 10 µM at CYP3A4; 1.3 µM with HepG2 cells.

For `CCn1c(NC2CCCNCC2)nc2c([N+](=O)[O-])c(Br)c(Br)cc21` (stereo not shown) [Example 1Q], the IC50 is 5.3 µM in the assay on SW-480 cells; 6.9 µM in the assay with MV4-11 cells (Homo sapiens, MV4-11, 72 h); 5.4 µM with Jeko-1 cells; 8.2 µM with HEL92 cells; 3.3 to 10 µM on CYP3A4; 1.1 µM with HepG2 cells. Further, the inhibition at 1 µM is 86% on Pim-1; 11% on DYRK1; 22% on Pim-2; < 5% at FLT3wt; 6% at CDK2/E; > 95% on Pim-3.
